Test results as given in patent publication US20250326772A1, “MRGPRX2 ANTAGONISTS, PHARMACEUTICAL COMPOSITION INCLUDING MRGPRX2 ANTAGONIST, AND METHOD OF TREATING MRGPRX2-MEDIATED DISEASE OR DISORDER” (KYORIN PHARMACEUTICAL CO., LTD., priority 2024, published 2025).
pIC50: −log10 of the molar value.

What was measured:
MRGPRX2 = target: T1, MRGPRX2 (Homo sapiens, UniProt Q96LB1); assay: MRGPRX2 reporter cell assay (NFAT-RE luciferase, Substance P stimulation); type: cell-based; details: U2OS cells stably transfected with MRGPRX2 and NFAT-RE luciferase reporter; Substance P at EC80; class symbols
T1 sequence (Q96LB1 1-330): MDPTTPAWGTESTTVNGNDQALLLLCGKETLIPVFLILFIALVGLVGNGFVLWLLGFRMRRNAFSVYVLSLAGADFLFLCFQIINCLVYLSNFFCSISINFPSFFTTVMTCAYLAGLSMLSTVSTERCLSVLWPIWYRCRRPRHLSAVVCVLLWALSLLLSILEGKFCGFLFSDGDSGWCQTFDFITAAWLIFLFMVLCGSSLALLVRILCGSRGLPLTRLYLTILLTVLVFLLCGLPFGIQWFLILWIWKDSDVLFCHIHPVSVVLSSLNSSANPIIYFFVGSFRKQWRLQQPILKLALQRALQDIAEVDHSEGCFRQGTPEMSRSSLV
In short: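 U2OS cells stably expressing MRGPRX2 and an NFAT-RE luc2P reporter, pre-incubated 30 min at 37° C with compound (0.5% DMSO), then stimulated with Substance P at EC80 for 6 h. Luminescence after ONE-GLO; percent inhibition fitted by four-parameter logistic to IC50.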

[1] = test system: humanized mice (NOG-hGM-CSF/hIL-3 Tg mice); assay: Evans blue vascular permeability assay ((R)-Zinc3573-induced, ear); type: in vivo; details: 10 mg/kg orally, 30 min before intradermal (R)-Zinc3573 3 μM into the ear; Evans blue dye; mean and standard error of mean
Protocol: Experimental Example 2: Evans Blue Vascular Permeability Assay
Twenty-five to twenty-six-week-old humanized mice (NOG-hGM-CSF/hIL-3 Tg mice at 17-18 weeks after transplantation of human umbilical cord blood-derived CD34+ cells; Central Institute for Experimental Animals) were anesthetized with isoflurane and injected intravenously with 200 μL of 0.5% Evans blue (cat. no. 056-04061; FUJIFILM Wako Pure Chemical Corporation). Subsequently, vehicle (0.5w/v % Methyl Cellulose) or 10 mg/kg of EX.381 were orally administered. After 30 minutes, animals were anesthetized with isoflurane and injected intradermally with 10 μL of (R)-Zinc3573 ((R)-Zinc; 3 μM, cat. no. SML1699; Sigma-Aldrich) into the right ear or with saline (0.1% DMSO) into the left ear as a control. Fifteen minutes after intradermal injection, animals were sacrificed and the ears were collected in 1.5 mL tubes. Evans blue dye was extracted from the tissue by adding 150 μL of N, N-dimethyl formamide (cat. no. 04096-34; nacalai tesque) for 12 hours at 55° C. […] The plate was read at 620 nm and 740 nm on a plate reader and the Evans blue dye concentration in each sample was determined by a standard curve using corrected absorbance (corrected absorbance=A620-A740). […] Data is expressed as mean and standard error of mean. […]

Structure (SMILES)	pIC50 (MRGPRX2)	Inhibition % [1]
[2H]C([2H])([2H])Oc1ccc(C#N)c(-c2c(-c3cn(C)nc3C(F)F)[nH]c3ncccc23)c1 [EX. 381]	> 8.00	76.1 ± 12.1%
Cn1cc(-c2c(-c3c(C(F)F)nn4c3OC[C@@H](N3CCOC3=O)C4)[nH]c3ncccc23)c(OC(F)F)n1 [EX. 579]	> 8.00	
Cn1cc(-c2c(-c3c(C(F)F)nn4c3OC[C@@H](N3CCCS3(=O)=O)C4)[nH]c3ncccc23)c(OC(F)F)n1 [EX. 580]	> 8.00	
Cn1cc(-c2c(-c3c(C(F)F)nn4c3OC[C@@H](NS(=O)(=O)CCCO)C4)[nH]c3ncccc23)c(OC(F)F)n1 [EX. 581]	> 8.00	
CN[C@@H]1COc2c(-c3[nH]c4ncccc4c3-c3cn(C)nc3OC(F)F)c(C(F)F)nn2C1 [EX. 582, (S)-3-(3-(3-(difluoromethoxy)-1-methyl-1H-pyrazol-4-yl)-1H-pyrrolo[2,3-b]pyridin-2-yl)-2-(difluoromethyl)-N-methyl-6,7-dihydro-5H-pyrazolo[5,1-b] [1,3]oxazin-6-amine]	> 8.00	
Cn1cc(-c2c(-c3c(C(F)F)nn4c3OC[C@@H](OCC(N)=O)C4)[nH]c3ncccc23)c(OC(F)F)n1 [EX. 583, (S)-2-((3-(3-(3-(difluoromethoxy)-1-methyl-1H-pyrazol-4-yl)-1H-pyrrolo[2,3-b]pyridin-2-yl)-2-(difluoromethyl)-6,7-dihydro-5H-pyrazolo[5,1-b] [1,3]oxazin-6-yl)oxy) acetamide]	> 8.00	
Cn1cc(-c2c(-c3c(C(F)F)nn4c3OC[C@@H](NC(=O)OCC(N)=O)C4)[nH]c3ncccc23)c(OC(F)F)n1 [EX. 584]	> 8.00	
Cn1cc(-c2c(-c3c(C(F)F)nn4c3OC[C@@H](NC(=O)C3(C(N)=O)CC3)C4)[nH]c3ncccc23)c(OC(F)F)n1 [EX. 585]	> 8.00	
Cn1cc(-c2c(-c3c(C(F)F)nn4c3OC[C@@H](NC(=O)CC(C)(C)O)C4)[nH]c3ncccc23)c(OC(F)F)n1 [EX. 586, (S)—N-(3-(3-(3-(difluoromethoxy)-1-methyl-1H-pyrazol-4-yl)-1H-pyrrolo[2,3-b]pyridin-2-yl)-2-(difluoromethyl)-6,7-dihydro-5H-pyrazolo[5,1-b] [1,3]oxazin-6-yl)-3-hydroxy-3-methylbutanamide]	> 8.00	
Cn1cc(-c2c(-c3c(C(F)F)nn4c3OC[C@@H](NC(=O)C(C)(C)O)C4)[nH]c3ncccc23)c(OC(F)F)n1 [EX. 587]	> 8.00	
Cn1cc(-c2c(-c3c(C(F)F)nn4c3OC[C@@H](NC(=O)C3(F)CC3)C4)[nH]c3ncccc23)c(OC(F)F)n1 [EX. 588]	> 8.00	
Cn1cc(-c2c(-c3c(C(F)F)nn4c3OC[C@@H](NC(=O)C3(O)CC3)C4)[nH]c3ncccc23)c(OC(F)F)n1 [EX. 589]	> 8.00	
CNC(=O)COC(=O)N[C@@H]1COc2c(-c3[nH]c4ncccc4c3-c3cn(C)nc3OC(F)F)c(C(F)F)nn2C1 [EX. 590]	> 8.00	
N#Cc1ncccc1-c1c(-c2c(C(F)F)nn3c2OC[C@@H](NC(=O)C2CC2)C3)[nH]c2ncccc12 [EX. 591]	> 8.00	
Cn1cc(-c2c(-c3c(C(F)F)nn4c3OC[C@@H](NC(=O)C3CC3)C4)[nH]c3ncccc23)c(C#N)n1 [EX. 593, (S)—N-(3-(3-(3-cyano-1-methyl-1H-pyrazol-4-yl)-1H-pyrrolo[2,3-b]pyridin-2-yl)-2-(difluoromethyl)-6,7-dihydro-5H-pyrazolo[5,1-b] [1,3]oxazin-6-yl) cyclopropanecarboxamide]	> 8.00	
Cc1nn2c(c1-c1[nH]c3ncccc3c1-c1cccnc1OC(F)F)OC[C@@H](NC(=O)C1CC1)C2 [EX. 594, (S)—N-(3-(3-(2-(difluoromethoxy)pyridin-3-yl)-1H-pyrrolo[2,3-b]pyridin-2-yl)-2-methyl-6,7-dihydro-5H-pyrazolo[5,1-b] [1,3]oxazin-6-yl) cyclopropanecarboxamide]	> 8.00	
C[C@H](O)CN(C)C(=O)N[C@@H]1COc2c(-c3[nH]c4ncccc4c3-c3cn(C)nc3OC(F)F)c(C(F)F)nn2C1 [EX. 595, 3-((S)-3-(3-(3-(difluoromethoxy)-1-methyl-1H-pyrazol-4-yl)-1H-pyrrolo[2,3-b]pyridin-2-yl)-2-(difluoromethyl)-6,7-dihydro-5H-pyrazolo[5,1-b] [1,3]oxazin-6-yl)-1-((S)-2-hydroxypropyl)-1-methylurea]	> 8.00	
